“Also recorded” adds a separate entry of the source. Where two headings read alike, the source gives them in different places.
Key:
[1] = tested on: HERV-K reverse transcriptase; assay: HERV-K RT activity in a cell-free system (PERT assay); format: biochemical, human endogenous retrovirus-K (HERV-K); settings: inhibitor added to extracted HERV-K RT just prior to PERT assay
HERV-K viral transcripts = assay: HERV-K activation in human neuronal cultures after neuronal injury (viral transcripts); format: cell-based; settings: human neurons; 3 mM 3-nitropropionic acid, 100 μM N-methyl-D-aspartate or 100 μM hydrogen peroxide, 18 hours
HERV-K protease = assay: HERV-K viral production from pCD-HK/Rev transfected HeLa cells with protease inhibitors (PERT assay of supernatant); format: cell-based, human endogenous retrovirus-K (HERV-K); settings: for IC90: Homo sapiens; for inhibition of HERV-K viral production (in words): inhibitors added 6 hr after transfection, PERT assay
VSV-G pseudotyped HERV-K = assay: cells; format: cell-based, human endogenous retrovirus-K (HERV-K); settings: for IC90: Homo sapiens, HeLa, 144 h, read-out: IC90, HERV-K replication (gag RNA by qPCR)
[2] = 2-fold serial dilution 31.25 nM to 1 μM
[3] = 2-fold serial dilution 31.25 nM to 1 μM, PERT 48 hrs, read-out: IC90, HERV-K viral production
[4] = 10-fold serial dilution 0.001 μM-100 μM, PERT 48 hr post-treatment, read-out: IC90, HERV-K protease / viral production, extensive dose-response

In the case of `Cc1cn([C@H]2C=C[C@@H](CO)O2)c(=O)[nH]c1=O` [Stavudine], the “inhibition of HERV-K RT activity” value [1] is reported as “significant and dose-dependent inhibition”.
In the case of `Cc1ccnc2c1NC(=O)c1cccnc1N2C1CC1` [Nevirapine], the “inhibition of HERV-K RT activity” value [1] is reported as “significant inhibition”.
For `C[C@H](Cn1cnc2c(N)ncnc21)OCP(=O)(O)O` [Tenofovir], the “inhibition of HERV-K RT activity” value [1] was “significant and dose-dependent inhibition”.
In the case of `O=C(O)CC[N+](=O)[O-]` [3-nitropropionic acid], the “activation of HERV-K (viral transcripts)” value (HERV-K viral transcripts) is reported as “No activation of HERV-K”.
With `Cc1cccc(C)c1OCC(=O)N[C@@H](Cc1ccccc1)[C@@H](O)C[C@H](Cc1ccccc1)NC(=O)[C@H](C(C)C)N1CCCNC1=O` [Lopinavir] the “rank among the HIV protease inhibitors tested” value (HERV-K protease; [2]) was “highest efficacy; also recorded: two most potent drugs”, the IC90 (HERV-K protease; [3]) was ~100 nM and the IC90 (HERV-K protease; [4]) was 651 nM. The “inhibition of HERV-K viral production (in words)” value (HERV-K protease) was “inhibited HERV-K protease in a dose-dependent manner”.
For `Nc1nc(NC2CC2)c2ncn([C@H]3C=C[C@@H](CO)C3)c2n1` [Abacavir], the “inhibition of HERV-K RT activity” value [1] was “significant and dose-dependent inhibition”, the “inhibition of HERV-K replication (in words)” value (VSV-G pseudotyped HERV-K) was “effectively block; also recorded: inhibited HERV-K replication in a dose-dependent manner; also recorded: effectively inhibited” and the IC90 (VSV-G pseudotyped HERV-K) was 175 nM.
With `Cc1nnc(C(=O)NC(C)(C)c2nc(C(=O)NCc3ccc(F)cc3)c(O)c(=O)n2C)o1` [Raltegravir] the “inhibition of HERV-K replication (in words)” value (VSV-G pseudotyped HERV-K) was “effectively block; also recorded: inhibited the replication of HERV-K in a dose-dependent manner; also recorded: effectively inhibited” and the IC90 (VSV-G pseudotyped HERV-K) was 75 nM.
With `O=C1Nc2ccc(Cl)cc2[C@@](C#CC2CC2)(C(F)(F)F)O1` [Efirvarenz] the “inhibition of HERV-K RT activity” value [1] was “significant inhibition”.
With `OO` [hydrogen peroxide] the “activation of HERV-K (viral transcripts)” value (HERV-K viral transcripts) was “No activation of HERV-K”.
In the case of `Cc1cc(C#N)cc(C)c1Oc1nc(Nc2ccc(C#N)cc2)nc(N)c1Br` [Etravirine], the “inhibition of HERV-K RT activity” value [1] is reported as “significant inhibition”.
For `Cc1cn([C@H]2C[C@H](N=[N+]=[N-])[C@@H](CO)O2)c(=O)[nH]c1=O` [Zidovudine], the “inhibition of HERV-K RT activity” value [1] was “significant and dose-dependent inhibition”, the “inhibition of HERV-K replication (in words)” value (VSV-G pseudotyped HERV-K) was “effectively block; also recorded: inhibited HERV-K replication in a dose-dependent manner; also recorded: effectively inhibited” and the IC90 (VSV-G pseudotyped HERV-K) was 70 nM.
`CC(C)CN(C[C@@H](O)[C@H](Cc1ccccc1)NC(=O)O[C@H]1CO[C@H]2OCC[C@H]21)S(=O)(=O)c1ccc(N)cc1` [Darunavir] was tested, and the “rank among the HIV protease inhibitors tested” value (HERV-K protease; [2]) was “highest efficacy; also recorded: two most potent drugs”, the IC90 (HERV-K protease; [3]) was ~100 nM and the IC90 (HERV-K protease; [4]) was 71 nM. For the same compound, the “inhibition of HERV-K viral production (in words)” value (HERV-K protease) was “inhibited HERV-K protease in a dose-dependent manner”.
In the case of `CN[C@H](CC(=O)O)C(=O)O` [N-methyl-D-aspartate], the “activation of HERV-K (viral transcripts)” value (HERV-K viral transcripts) is reported as “No activation of HERV-K”.
